What is called pIC50 is the negative decadic logarithm of the IC50, by convention in mol/L. What is called pEC50 is the negative decadic logarithm of the EC50, by convention in mol/L.

The results in this text go back to ChEMBL document CHEMBL4627301, “Discovery of novel hydroxyamidine derivatives as indoleamine 2,3-dioxygenase 1 inhibitors with in vivo anti-tumor efficacy” (Bioorg Med Chem Lett, 2020).

pEC50, pIC50: −log10 of the molar value. Calls of active or inactive are those of the source. The rule behind the calls is not given here.

The target of series [1] is T1, Indoleamine 2,3-dioxygenase 1 (Homo sapiens, UniProt P14902). Nature of the series: Inhibition of IDO1 (unknown origin) assessed as reduction in kynurenine formation using L-tryptophan as substrate incubated for 60 mins by fluorescence based assay.
T1 sequence (P14902 whole entry): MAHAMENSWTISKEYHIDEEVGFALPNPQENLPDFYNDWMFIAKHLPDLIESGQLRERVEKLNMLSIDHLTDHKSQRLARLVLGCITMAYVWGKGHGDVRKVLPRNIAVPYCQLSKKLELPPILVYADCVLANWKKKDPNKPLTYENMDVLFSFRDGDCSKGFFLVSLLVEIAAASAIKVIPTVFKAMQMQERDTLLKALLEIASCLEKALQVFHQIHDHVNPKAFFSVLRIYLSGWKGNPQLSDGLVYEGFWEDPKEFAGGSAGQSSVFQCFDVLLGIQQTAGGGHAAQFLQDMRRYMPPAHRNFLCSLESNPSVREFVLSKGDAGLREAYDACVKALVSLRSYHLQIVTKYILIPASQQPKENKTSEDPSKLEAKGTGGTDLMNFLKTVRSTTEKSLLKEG
The target of series [2] is T1, Indoleamine 2,3-dioxygenase 1. Nature of the series: Inhibition of IDO1 in IFN-gamma stimulated human HeLa cells assessed as reduction in kynurenine formation using L-tryptophan as substrate incubated for 24 hrs by UV-spectrophotometry. Format: cell-based.
Series [3] deals with Lewis lung carcinoma cell line. In words: Antitumor activity against mouse LLC cells xenografted in C57BL/6 mouse assessed as tumor growth inhibition at 100 mg/kg, po administered bid for 14 days and measured for 14 days. Format: functional, organism-based.
The nature of series [4]: Toxicity in C57BL/6 mouse xenografted with mouse LLC cells assessed as body weight loss at 100 mg/kg, po administered bid for 14 days and measured for 14 days. Particulars: in vivo, 336 h. Format: organism-based, Lewis lung carcinoma.

For `NS(=O)(=O)CCCNc1nonc1/C(=N/O)Nc1ccc(F)c(Br)c1`, the pIC50 in series [1] is 6.90. Further, in series [2], the pEC50 is 7.82.
As for `N=S1(=O)CC(Nc2nonc2/C(=N/O)Nc2ccc(F)c(Br)c2)C1` (stereo unspecified), in series [1], the pIC50 is 6.68. For the same molecule, the pEC50 in series [2] was 7.28.
Take `NNc1nonc1/C(=N/O)Nc1ccc(F)c(Br)c1`: the pIC50 in series [1] was 6.97. Further, in series [2], the pEC50 was 6.25.
Turning to `O=S(=O)(CCNc1nonc1/C(=N/O)Nc1ccc(F)c(Br)c1)N1CCC1`, in series [1], the pIC50 is 6.72. Moreover, in series [2], the pEC50 was 6.84.
Regarding `NNS(=O)(=O)CCNc1nonc1/C(=N/O)Nc1ccc(F)c(Br)c1`, the pIC50 in series [1] was 6.87. The pEC50 in series [2] is below 6.10.
In the case of `N#CN=S1CC(Nc2nonc2/C(=N/O)Nc2ccc(F)c(Br)c2)C1` (stereo unspecified), in series [1], the pIC50 was 7.16. Further, the pEC50 in series [2] is 7.14.
The like results for `O=S(=O)(CCNc1nonc1/C(=N/O)Nc1ccc(F)c(Br)c1)NO` were, in that order, 6.90 and below 6.10.
On to `CN(C)S(=O)(=O)CCCNc1nonc1/C(=N/O)Nc1ccc(F)c(Br)c1`, for which the pIC50 in series [1] is 7.01. In series [2], the pEC50 is 7.70.
Regarding `NS(=O)(=O)CCNc1nonc1/C(=N/O)Nc1ccc(F)c(Br)c1`, in series [1], the pIC50 is 7.15. Besides, in series [3], the TGI entry is “Active”. In series [2], the pEC50 is 7.96. For the same molecule, in series [4], the Activity entry was “Non-Toxic”.
As for `NS(=O)(=O)NCCNc1nonc1/C(=N/O)Nc1ccc(F)c(Br)c1`, the TGI result in series [3] is “Active”.
As to `CCNS(=O)(=O)CCNc1nonc1/C(=N/O)Nc1ccc(F)c(Br)c1`, in series [1], the pIC50 was 7.02. The negative-log EC50 (pEC50) in series [2] is 7.39.
The like results for `O=S(=O)(CCNc1nonc1/C(=N/O)Nc1ccc(F)c(Br)c1)NCC(F)(F)F` were, in that order, 6.85 and 6.57.
Consider `O=S(=O)(CCNc1nonc1/C(=N/O)Nc1ccc(F)c(Br)c1)NCC1CC1`, for which, in series [1], the pIC50 was 6.51. Further, the pEC50 in series [2] was 6.57.
Take `NS(=O)(=O)CCONc1nonc1/C(=N/O)Nc1ccc(F)c(Br)c1`: in series [1], the pIC50 is 7.06. Besides, in series [2], the pEC50 is 7.57.
With `CS(=O)(=O)NNc1nonc1/C(=N/O)Nc1ccc(F)c(Br)c1`, the pIC50 in series [1] is 6.22. Moreover, in series [2], the pEC50 was below 6.10.
The like results for `C#CCNS(=O)(=O)CCNc1nonc1/C(=N/O)Nc1ccc(F)c(Br)c1` were, in that order, 6.66 and 7.48.
Take `O=S1(=O)CC(Nc2nonc2/C(=N/O)Nc2ccc(F)c(Br)c2)C1`: the pIC50 in series [1] is 7.00. Moreover, in series [2], the pEC50 is 7.23.
The like results for `CN(C)S(=O)(=O)CCNc1nonc1/C(=N/O)Nc1ccc(F)c(Br)c1` were, in that order, 6.98 and 7.77.
In the case of `NS(=O)(=O)NNc1nonc1/C(=N/O)Nc1ccc(F)c(Br)c1`, the pIC50 in series [1] was 6.66. Besides, the pEC50 in series [2] is 7.00.
As for `[O-][S+]1CC(Nc2nonc2/C(=N/O)Nc2ccc(F)c(Br)c2)C1` (stereo unspecified), the pIC50 in series [1] is 6.67. Also, the pEC50 in series [2] was 7.10.
